Key:
[1] = test system: human primary neutrophils; assay: Neutrophil ROS production (fMLP triggered, DHR-123, FACS); format: cell-based
Description: The effect of 4 different concentrations (from left to right: 100, 50, 20 and 10 μM) of B2 is shown. Each symbol represents one experiment.
Neutrophil ROS production: Neutrophil reactive oxygen species (ROS) production was measured on human primary neutrophils, isolated from fresh blood samples using the MACSexpress™ neutrophil kit as described in the manufacturer's instructions (Miltenyi Biotec Inc.). Neutrophils in RPMI containing 50 μm dihydrorhodamine 123 (DHR-123) were triggered to produce ROS by treatment with 20 μm bacterial peptide N-formylmethionyl-leucyl-phenylalanine (fMLP) as a physiologically relevant stimulant. ROS were measured by FACS based on the conversion of DHR-123 to Rhodamine-123.
To investigate the effect of neutrophil ROS production by B2, human primary neutrophils, isolated from fresh blood samples, were triggered to produce reactive oxygen species (ROS) by treatment with the bacterial peptide N-formylmethionyl-leucyl-phenylalanine (fMLP) as a physiologically relevant stimulant and ROS were measured by FACS based on the conversion of dihydrorhodamine 123 to rhodamine 123. The effect of 4 different concentrations of B2 is shown (FIG. 2).

primary human B cells = assay: B lymphocyte plasmablast development (CD38+/CD19low and CD138+ by FACS); format: cell-based; settings: 5 days; FIG. 4 (20 and 10 μM)
Description: The effect of two concentrations (from right to left: 20 and 10 μM) of B2 is shown in each plot in comparison to control (far left). Each symbol represents one experiment.
B lymphocyte plasmablast development: For human B lymphocyte plasmablast development, primary human B cells were isolated from buffy coat using the MACSxpress Buffy Coat Pan B Cell Isolation Kit (Miltenyi Biotec) as per manufacturer's instructions. The cells were cultured in RPMI in the presence of human transferrin (20 μg/ml), IL-21 (100 ng/ml), recombinant hCD40L (100 μg/ml), anti-HA (50 μg/ml), at a cell density of 5×10^4 cells/ml. Plasmablast formation after 5 days was measured by FACS using two sets of markers: CD38+/CD19low and CD138+ for two stages of plasmablast development.
To investigate the inhibition of B lymphocyte plasmablast development by B2, primary human B cells, isolated from buffy coat, were cultured in the presence of CD40, IL21, anti-IgM, and plasmablast formation measured by FACS using two sets of markers: CD38+/CD19low (FIG. 4, upper plot) and CD138+(FIG. 4, lower plot) for two stages of plasmablast development.

[2] = test system: primary peripheral blood monocytes; assay: Macrophage/monocyte migration to CCL2 (Boyden chamber/Transwell); format: cell-based, human; settings: 50 μM B2, towards CCL2 (FIG. 10)
Description: Dark grey: dimethylsulfoxide (DMSO) only; light grey: 50 μM B2. An exemplary experiment out of four is shown.
Macrophage/monocyte migration: Monocytes/macrophages were purified from buffy coats, first by density gradient centrifugation on ficoll to isolate total PBMC, and then by negative selection using the monocyte purification kit from Miltenyi Inc. as per manufacturer's instructions. Monocytes were then resuspended in tissue culture media at a concentration of 5×10^6 per ml. Monocyte migration to CCL2 was then measured using a Boyden chamber assay fitted with a membrane with […] pores. This was performed as follows: 200 μl of cells were pipetted into the upper chamber in the presence or absence of B2 or DMSO control. In the lower chamber 1 ml of the chemokine solution at concentrations of 10 ng/mL and 100 ng/mL, together with the same amount of B2 or DMSO as in the upper chamber was added. Cells were then left to migrate for 6 hours and the number of cells migrating into the lower chamber was ascertained by standard cell counting.
To investigate the inhibition of macrophage/monocyte migration by B2, primary peripheral blood monocytes were isolated from buffy coat and subsequent negative selection. […] Migrated cells were quantified after 5 hours in the presence of carrier (DMSO) only or 50 μM B2 in DMSO (FIG. 10).

[3] = test system: primary human B lymphocytes; assay: B lymphocyte cytokine release (cytokine array); format: cell-based; settings: CD40L and IL4; FIG. 9
Description: The % reduction compared to the stimulated control is shown; average of 2 experiments.
B lymphocyte cytokine release: Primary human B lymphocytes isolated from fresh buffy coat were stimulated at a cell density of 5×10^5/ml in 1 ml by CD40L and IL4 for 5 days in a 24-well plate, and the levels of 105 cytokines in the cell culture supernatant were measured by the R&D Systems Human XL cytokine antibody array as per manufacturer's instructions. The signals were measured by a fluorescence-based photometric read-out in the Li—COR Odyssey Fluorescent imaging system, and the spots quantified by Fiji software.
To investigate the modulation of B lymphocyte cytokine release by B2, primary human B lymphocytes isolated from fresh buffy coat were stimulated by CD40L and IL4 for […] and the levels of 105 cytokines in the cell culture supernatant were measured by the R&D Systems Human XL cytokine array and a fluorescence-based photometric read-out.

[4] = test system: human primary eosinophils; assay: Eosinophil ROS production (PMA triggered, DHR-123, FACS); format: cell-based; settings: FIG. 7 (100, 50, 25 μM)
Description: The effect of 3 different concentrations (from right to left: 100, 50 and 25 μM) of B2 is shown in comparison to control (far left) and ROS triggered control (PMA; second from left); average of 3 experiments.
Eosinophil ROS production: Human primary eosinophils were purified from buffy coat, firstly by density gradient centrifugation on ficoll to isolate total peripheral blood mononuclear cell (PBMC), and then by negative selection using the eosinophil purification kit from Miltenyi Inc. as per manufacturer's instructions. The eosinophils were then resuspended in pre-warmed tissue culture media, which had been left in the incubator overnight to equilibrate, containing 25 μM dihydrorhodamine 123 (DHR-123) at a cell density of 1×10^6 cells/ml. The cells were then stimulated with phorbol 12-myristate 13-actetate (PMA) at a concentration of 1 μM in the presence or absence of B2 or DMSO for control in the incubator for 20 minutes and then immediately put on ice to stop the reaction. Levels of the oxidized DHR in the samples were measured by flow cytometry as described above in relation to neutrophil ROS production.
To investigate inhibition of eosinophil ROS production by B2, human primary eosinophils, isolated from fresh blood samples, were triggered to produce ROS by treatment with PMA, and ROS measured by FACS based on the conversion of dihydrorhodamine 123 to rhodamine 123 (FIG. 7).

Cc1onc(-c2ccccc2Cl)c1C(=O)Nc1nc2ccc([N+](=O)[O-])cc2s1 [B2, 3-(2-chlorophenyl)-5-methyl-N-(6-nitrobenzo[d]thiazol-2-yl)isoxazole-4-carboxamide]
inhibition of neutrophil ROS production ([1]; 50 μM B2, fMLP): clear inhibition of ROS production
inhibition of neutrophil ROS production ([1]; 100 μM B2, fMLP): clear inhibition of ROS production
neutrophil ROS production ([1]; fMLP, concentration not given in the sentence (FIG. 2)): substantially reduced
human B cell plasmablast development (primary human B cells): inhibition of human B cell plasmablast development
macrophage migration [2]: reduces macrophage migration
B cell cytokine release profile [3]: reducing specific pro-inflammatory cytokines
production of reactive oxygen species (ROS) by human primary eosinophils [4]: reduced production

From US20260337187A1, “COMPOUNDS FOR TREATMENT OF INFLAMMATORY PROCESSES” (THORNE LIMITED, priority 2022, published 2026)
